From patent publication US20250066389A1, “HETEROCYCLIC AMIDES AND METHODS OF USING THE SAME” (Rgenta Therapeutics, Inc., priority 2021, published 2025)
Structures can show the parent of a compound that is named as a salt.

The compounds below were run on PMS1 (assay: Mini-Gene Reporter Assay—PMS1 (firefly luciferase mini-gene reporter transiently transfected into HEK293 cells)). Settings: Homo sapiens; at 5 uM; mini-gene firefly luciferase reporter in HEK293 cells; read-out: PMS1 % Effect at 5 uM.
Type: cell-based
Description: Example 76. Mini-Gene Reporter Assay—PMS1
Mini-gene reporter constructs for each target site can be constructed by first PCR amplifying the region-of-interest including the sequence of the alternatively skipped, sequences of the immediate upstream and downstream introns, and sequences of the immediate upstream and downstream exons. Then the 3′ end of the amplified sequence can be ligated to a firefly luciferase reporter gene and cloned into the pcDNA3.1 vector backbone. The final reporter construct can be transiently transfected into HEK293 cells using Lipofectamine 3000 transfection reagents. Compounds that can induce the inclusion of the skipped exon in the reporter construct would increase the reporter firefly luciferase activity.
Test compounds may be diluted in duplicates and dispensed into an assay plate. Transient mini-gene reporter cell line stock is resuspended and dispensed into the assay plate. Assay plates are then centrifuged and incubated. A luciferase reagent (e.g. ONE-Glo firefly luciferase reagent from Promega®) may be added to the assay plate and the luminescence (RLU) signals recorded. EC50 values may be determined by curve fitting in Levenberg-Marquardt algorithm.
In Table D below, A indicates a IC50 (μM)<1 μM, B indicates a IC50 (μM) 1 μM to <10 μM, and C indicates a IC50 (μM) 10 μM to <50 μM. In Table D below, A indicates a >75% Effect at 5 μM μM. B indicates a 50 to <75% Effect at 5 μM μM, and C indicates a <50% Effect at 5 μM.

SMILES	activation at 5 µM
COc1cc2nc(C)cn2cc1C(=O)Nc1ccc(N2CCC3NCCCC3C2)cc1F (stereo not shown) [Compound 131, N-(2-fluoro-4-(octahydro-1,6-naphthyridin-6(2H)-yl)phenyl)-7-methoxy-2-methylimidazo[1,2-a]pyridine-6-carboxamide]	50 to 75%
COc1cc2nc(C)cn2cc1C(=O)Nc1ccc(N2CC(CO)C3(CNC3)C2)cc1F (stereo not shown) [Compound 134, N-(2-fluoro-4-(8-(hydroxymethyl)-2,6-diazaspiro[3.4]octan-6-yl)phenyl)-7-methoxy-2-methylimidazo[1,2-a]pyridine-6-carboxamide]	< 50%
COc1cc2nc(C)cn2cc1C(=O)Nc1ccc(N2CCC3(CCNC3)CC2)cc1F [Compound 135, N-(2-fluoro-4-(2,8-diazaspiro[4.5]decan-8-yl)phenyl)-7-methoxy-2-methylimidazo[1,2-a]pyridine-6-carboxamide]	< 50%
COc1cc2nc(C)cn2cc1C(=O)Nc1ccc(N2CCC(NCC3CC3)CC2)cc1F [Compound 136, N-(4-(4-((cyclopropylmethyl)amino)piperidin-1-yl)-2-fluorophenyl)-7-methoxy-2-methylimidazo[1,2-a]pyridine-6-carboxamide]	50 to 75%
COCCNC1CCN(c2ccc(NC(=O)c3cn4cc(C)nc4cc3OC)c(F)c2)CC1 [Compound 137, N-(2-fluoro-4-(4-((2-methoxyethyl)amino)piperidin-1-yl)phenyl)-7-methoxy-2-methylimidazo[1,2-a]pyridine-6-carboxamide]	50 to 75%
COc1cc2nc(C)cn2cc1C(=O)Nc1ccc(N2CC3CCCC(C2)NC3)cc1F (stereo not shown) [Compound 138, N-(4-(3,9-diazabicyclo[3.3.2]decan-3-yl)-2-fluorophenyl)-7-methoxy-2-methylimidazo[1,2-a]pyridine-6-carboxamide]	> 75%
COc1cc2nc(C)cn2cc1C(=O)Nc1ccc(N2CCNCC3(CC3)C2)cc1F [Compound 139, N-(2-fluoro-4-(5,8-diazaspiro[2.6]nonan-5-yl)phenyl)-7-methoxy-2-methylimidazo[1,2-a]pyridine-6-carboxamide]	> 75%
COc1cc2nc(C)cn2cc1C(=O)Nc1ccc(N2C3CCCC2CNC3)cc1F [Compound 140, N-(4-(3,9-diazabicyclo[3.3.1]nonan-9-yl)-2-fluorophenyl)-7-methoxy-2-methylimidazo[1,2-a]pyridine-6-carboxamide]	> 75%
COc1cc2nc(C)cn2cc1C(=O)Nc1ccc(N2CCCNC(CO)C2)cc1F (stereo not shown) [Compound 141, N-(2-fluoro-4-(3-(hydroxymethyl)-1,4-diazepan-1-yl)phenyl)-7-methoxy-2-methylimidazo[1,2-a]pyridine-6-carboxamide]	50 to 75%
COc1cc2nc(C)cn2cc1C(=O)Nc1ccc(N2CCN[C@@H](C(C)C)C2)cc1F [Compound 142, (S)-N-(2-fluoro-4-(3-isopropylpiperazin-1-yl)phenyl)-7-methoxy-2-methylimidazo[1,2-a]pyridine-6-carboxamide]	> 75%
COc1cc2nc(C)cn2cc1C(=O)Nc1ccc(N2CCC3(CCN3)CC2)cc1F [Compound 143, N-(2-fluoro-4-(1,7-diazaspiro[3.5]nonan-7-yl)phenyl)-7-methoxy-2-methylimidazo[1,2-a]pyridine-6-carboxamide]	> 75%
COCC1CNCCN1c1ccc(NC(=O)c2cn3cc(C)nc3cc2OC)c(F)c1 (stereo not shown) [Compound 144, N-(2-fluoro-4-(2-(methoxymethyl)piperazin-1-yl)phenyl)-7-methoxy-2-methylimidazo[1,2-a]pyridine-6-carboxamide]	50 to 75%
COc1cc2nc(C)cn2cc1C(=O)Nc1ccc(N2CCC3(CCNC3)C2)cc1F (stereo not shown) [Compound 145, N-(2-fluoro-4-(2,7-diazaspiro[4.4]nonan-2-yl)phenyl)-7-methoxy-2-methylimidazo[1,2-a]pyridine-6-carboxamide]	< 50%
COc1cc2nc(C)cn2cc1C(=O)Nc1ccc(N2CCC3(CCCN3)C2)cc1F (stereo not shown) [Compound 146, N-(2-fluoro-4-(1,7-diazaspiro[4.4]nonan-7-yl)phenyl)-7-methoxy-2-methylimidazo[1,2-a]pyridine-6-carboxamide]	< 50%
COc1cc2nc(C)cn2cc1C(=O)Nc1ccc(N2C3CCNCC2CC3)cc1F (stereo not shown) [Compound 148, N-(4-(3,9-diazabicyclo[4.2.1]nonan-9-yl)-2-fluorophenyl)-7-methoxy-2-methylimidazo[1,2-a]pyridine-6-carboxamide]	< 50%
CCNC1CCN(c2ccc(NC(=O)c3cn4cc(C)nc4cc3OC)c(F)c2)CC1 [Compound 149, N-(4-(4-(ethylamino)piperidin-1-yl)-2-fluorophenyl)-7-methoxy-2-methylimidazo[1,2-a]pyridine-6-carboxamide]	> 75%
COc1cc2nc(C)cn2cc1C(=O)Nc1ccc(N2CCC3(CC2)CNC3)cc1F [Compound 150, N-(2-fluoro-4-(2,7-diazaspiro[3.5]nonan-7-yl)phenyl)-7-methoxy-2-methylimidazo[1,2-a]pyridine-6-carboxamide]	< 50%
CCNC1CCCN(c2ccc(NC(=O)c3cn4cc(C)nc4cc3OC)c(F)c2)C1 (stereo not shown) [Compound 151, N-(4-(3-(ethylamino)piperidin-1-yl)-2-fluorophenyl)-7-methoxy-2-methylimidazo[1,2-a]pyridine-6-carboxamide]	< 50%
COc1cc2nc(C)cn2cc1C(=O)Nc1ccc(N2CCC3(CNC3)C2)cc1F [Compound 152, N-(2-fluoro-4-(2,6-diazaspiro[3.4]octan-6-yl)phenyl)-7-methoxy-2-methylimidazo[1,2-a]pyridine-6-carboxamide]	< 50%
COc1cc2nc(C)cn2cc1C(=O)Nc1ccc(N2CCNCC(O)C2)cc1F (stereo not shown) [Compound 153, N-(2-fluoro-4-(6-hydroxy-1,4-diazepan-1-yl)phenyl)-7-methoxy-2-methylimidazo[1,2-a]pyridine-6-carboxamide]	< 50%
COc1cc2nc(C)cn2cc1C(=O)Nc1ccc(N2CCNC(CF)C2)cc1F (stereo not shown) [Compound 159, N-(2-fluoro-4-(3-(fluoromethyl)piperazin-1-yl)phenyl)-7-methoxy-2-methylimidazo[1,2-a]pyridine-6-carboxamide]	50 to 75%

Same assay, conditions: Homo sapiens; mini-gene firefly luciferase reporter in HEK293 cells

IC50	SMILES
1000 to 10000 nM	Cc1cn2cc(C(=O)Nc3ccc(N4CCNCC4)cn3)c(OC(C)C)cc2n1 [Compound 129, 7-isopropoxy-2-methyl-N-(5-(piperazin-1-yl)pyridin-2-yl)imidazo[1,2-a]pyridine-6-carboxamide hydrochloride]
< 1000 nM	CCOc1cc2nc(C)cn2cc1C(=O)Nc1ccc(N2CCNCC2)cn1 [Compound 130, 7-ethoxy-2-methyl-N-(5-(piperazin-1-yl)pyridin-2-yl) imidazo[1,2-a]pyridine-6-carboxamide hydrochloride]
< 1000 nM	COc1cc2nc(C)cn2cc1C(=O)Nc1ccc(N2CCC3(CCCN3)CC2)cc1F [Compound 132, N-(2-fluoro-4-(1,8-diazaspiro[4.5]decan-8-yl)phenyl)-7-methoxy-2-methylimidazo[1,2-a]pyridine-6-carboxamide]
< 1000 nM	COc1cc2nc(C)cn2cc1C(=O)Nc1ccc(N2CCC3(CC2)COCCN3)cc1F [Compound 133, N-(2-fluoro-4-(4-oxa-1,9-diazaspiro[5.5]undecan-9-yl)phenyl)-7-methoxy-2-methylimidazo[1,2-a]pyridine-6-carboxamide]
< 1000 nM	COc1cc2nc(C)cn2cc1C(=O)Nc1ccc(N2[C@H](C)CNC[C@@H]2C)cc1F [Compound 154, N-(4-((28,6R)-2,6-dimethylpiperazin-1-yl)-2-fluorophenyl)-7-methoxy-2-methylimidazo[1,2-a]pyridine-6-carboxamide]
< 1000 nM	COc1cc2nc(C)cn2cc1C(=O)Nc1ccc(N2CC3CNC(C3)C2)cc1F (stereo not shown) [Compound 155, N-(4-(3,6-diazabicyclo[3.2.1]octan-3-yl)-2-fluorophenyl)-7-methoxy-2-methylimidazo[1,2-a]pyridine-6-carboxamide]
< 1000 nM	COc1cc2nc(C)cn2cc1C(=O)Nc1ccc(N2CCNC(C)C2C)cc1F (stereo not shown) [Compound 157, N-(4-(2,3-dimethylpiperazin-1-yl)-2-fluorophenyl)-7-methoxy-2-methylimidazo[1,2-a]pyridine-6-carboxamide]
< 1000 nM	COc1cc2nc(C)cn2cc1C(=O)Nc1ccc(N2CCNCCC2C)cc1F (stereo not shown) [Compound 158, N-(2-fluoro-4-(7-methyl-1,4-diazepan-1-yl)phenyl)-7-methoxy-2-methylimidazo[1,2-a]pyridine-6-carboxamide]
< 1000 nM	COc1cc2nc(C)cn2cc1C(=O)Nc1ccc(N2CCNC(C)CC2)cc1F (stereo not shown) [Compound 160, N-(2-fluoro-4-(5-methyl-1,4-diazepan-1-yl)phenyl)-7-methoxy-2-methylimidazo[1,2-a]pyridine-6-carboxamide]

SMILES	IC50
COc1cc2nc(C)cn2cc1C(=O)Nc1ccc(N2CC3CCCC(C2)N3)cc1F [Compound 147, N-(4-(3,9-diazabicyclo[3.3.1]nonan-3-yl)-2-fluorophenyl)-7-methoxy-2-methylimidazo[1,2-a]pyridine-6-carboxamide]	< 1000 nM
